From patent US20130030045A1, “METHOD OF PREVENTING AND TREATING OSTEOPOROSIS” (priority 2011, published 2013)
Like-named read-outs stand apart in the source and are kept apart here.

Columns and labels:
MBMMφ cells [1] = test: TRAP activity assay, differentiation of MBMMφ cells induced with RANKL and M-CSF; assay type: cell-based, mouse; conditions: for IC50: Mus musculus, 2 days with compound, then 20 ng/ml RANKL and 10 ng/ml M-CSF for 5 days, read-out: IC50, s-TRAP activity (inhibition of differentiation of MBMMφ cells)
Experimental: In some embodiments of the present invention, preosteoclast cells used are obtained from bone marrow in hind leg bone of C57BL/6J Narl mice, called as MBMMφ cells (mouse bone marrow macrophages), and are cultured in alpha-MEM medium (including 10% FBS and 1× antibiotic-antimycotic solution) and then added with M-CSF (macrophage colony-stimulating factor) and RANKL (receptor for activation of nuclear factor kappa B ligand) for inducing cell differentiation and maturation.
(§1) The cultured medium for cells derived from MBMMφ differentiation is removed, and cells are added with new medium. After incubation for 1 hour, and the activity of secretory type acid phosphatase in the medium is measured. First, 30 μl medium to be measured is taken out and added with […] TRAP assay reagent (0.1 M acetate buffer, 60 mM sodium tartrate and 5 mg/ml pNPP) followed by incubating for 30 minutes at 37° C., then adding 60 μl 0.5N NaOH solution to terminate the reaction and OD value at 405 nm of each specimen being measured.
In an embodiment, different concentrations of flavone (chemical structure as shown in FIG. 2(A)), 6-methoxy flavone (FIG. 2(B)), 7-methoxy flavone (FIG. 2(C)), 6-hydroxy flavone (FIG. 2(D)) and 7-hydroxy flavone (FIG. 2(E)) are respectively added into the cultured medium of MBMMφ cells, which had been cultured in 10 ng/ml M-SCF without treating with flavone components for 5 days, for 2 days. Next, after adding 20 ng/ml RANKL and 10 ng/ml M-CSF to induce cell differentiation for another 5 days, TRAP activity assay is performed.

MC3T3-E1 cells [2] = test: MTT assay, MC3T3-E1 cell growth; conditions: 1 day
From the text: In an embodiment, different concentrations of flavone, 6-methoxy flavone, 7-methoxy flavone, 6-hydroxy flavone and 7-hydroxy flavone are respectively added into 3,000 MC3T3-E1 cells per well in the cultured medium for 1 day.

SaOS-2 cells = test: Calcium staining for calcium deposition (CaP assay) of SaOS-2 cells; assay type: cell-based, human; conditions: 10 μM, 7 day; data not shown
MBMMφ cells [3] = test: MTT assay, MBMMφ cell growth
Experimental: (§2) In an embodiment, different concentrations (0 μM, 1 μM, 5 μM, 10 μM, 15 μM, 20 μM, and 25 μM) of 7-methoxy flavone are respectively added into 3,000 MBMMφ cells/well in the cultured medium containing M-CSF for 1 day incubation. Next, MTT reagent is used to detect the OD value of cells so as to determine the growth situation of MBMMφ cells.

MC3T3-E1 cells [4] = test: Alkaline phosphatase (ALP) assay, differentiation of MC3T3-E1 cells; assay type: cell-based; conditions: 4 days
Experimental: In experiments, 10,000 cells/well are cultured with alpha-MEM medium (including 10% FBS and 1× antibiotic-antimycotic solution) for 4 days at 37° C. in 5% CO2 incubator. After adding different concentrations of methoxy flavones or hydroxy flavones to react for 4 days, the cultured medium is removed and 100 μl 4% formaldehyde is added to fix cells for 10 minutes. After washing cells, 30 μl p-nitrophenyl phosphate (pNPP) solution is added to react for 30 minutes at 37° C., and then 30 μl 0.5 N NaOH is added to stop the reaction. Finally, OD value is measured at […] using ELISA reader.
In an embodiment, different concentrations of 6-methoxy flavone and 7-methoxy flavone are respectively added into MC3T3-E1 cells (a kind of preosteoblast cells) in alpha-MEM medium (containing 10% FBS, 1× antibiotic-antimycotic solution, 10 mM β-glycerophsphate, 50 μg/ml VitC, 10^−7 M dexamethasone) for 4 days to induce cell osteogenic differentiation and maturation. Because differentiated MC3T3-E1 cells will express the ALP activity, ALP activity assay is used to know the extent of cell differentiation. FIGS. 5(A) and 5(B) illustrate ALP activities at four different concentrations (1.25 μM, 2.5 μM, 5 μM, 10 μM) of 6-methoxy flavone and 7-methoxy flavone, respectively, in comparison with controls (with only PBS, or without 6-methoxy flavone or 7-methoxy flavone but with equal volume of vehicle, DMSO).
In still another embodiment, different concentrations (0.4 μM, 2 μM, 10 μM, 50 μM) of flavone, 7-methoxy flavone and 6-hydroxy flavone are respectively added into MC3T3-E1 cells in alpha-MEM medium with 10% FBS, 1× antibiotic-antimycotic solution, 10 mM β-glycerophsphate, 50 μg/ml Vitamin C, and 10^−7 M dexamethasone for 4 day incubation to induce cell differentiation and maturation. FIGS. 7(A)-7(C) illustrate ALP activities of MC3T3-E1 cells after exposed to four different concentrations of flavone, 7-methoxy flavone and 6-hydroxy flavone, respectively, in comparison with control (without flavone, 7-methoxy flavone or 6-hydroxy flavone, but with vehicle DMSO).

[5] = system: human mesenchymal stem cells (hMSCs); test: Calcein fluorescent test for calcium precipitation, osteogenesis of human mesenchymal stem cells; assay type: cell-based; conditions: FIG. 10, calcein fluorescent test
From the text: FIGS. 10(A)-10(D) respectively illustrate the effects of 6-methoxy flavone, 7-methoxyl flavone, 7-hydroxy flavone, and 6-hydroxy flavone on the osteogenesis of human mesenchymal stem cells, based on calcein fluorescent test for calcium precipitation.
Moreover, the present invention also measures the effects of methoxy flavones and hydroxyl flavones on human mesenchymal stem cells (hMSCs).

MC3T3-E1 cells [6] = test: Alizarin Red S stain, calcium deposition of MC3T3-E1 cells; assay type: cell-based; conditions: at 5 μM, 10 μM, 20 μM and 40 μM; 20 days
Experimental: In an embodiment, different concentrations (2.5 μM, 5 μM, 10 μM, 20 μM and 40 μM) of 7-methoxy flavone are respectively added into the cultured medium of MC3T3-E1 cell incubated for 20 days, wherein the cultured medium with 7-methoxy flavone is changed every 4 days. Next, Alizarin Red S stain is used to observe the calcification situation of MC3T3-E1 cells, and OD value at 562 nm is measured for quantitative analysis.

RAW 264.7 cells [7] = test: TRAP activity assay, differentiation of RAW 264.7 cells; assay type: cell-based, mouse; conditions: at 8 μM, 16 μM, and 32 μM; compared to control
Experimental: as §1
In another embodiment, different concentrations of 7-methoxy flavone are respectively added into the cultured medium of RAW 264.7 cells (mouse leukaemic monocyte macrophages, another kind of preosteoclast cells) for 2 days. Next, after adding 20 ng/ml
RANKL and 10 ng/ml M-CSF to induce RAW 264.7 cell differentiation for 3 days, TRAP activity assay is then performed.

RAW 264.7 cells [8] = test: Toxicity to RAW 264.7 cells; assay type: cell-based, mouse; conditions: data not shown
MBMMφ cells [9] = system: MBMMφ cells
Experimental: as §2

[10] = at the concentration of equal to or larger than 10 μM
[11] = at the concentration of equal to or larger than 5 μM

Row | Compound | IC50 (MBMMφ cells [1]) | effect on differentiation of MBMMφ cells (s-TRAP activity) (MBMMφ cells [1]; [10]) | growth of MC3T3-E1 cells (MTT, cytotoxicity) (MC3T3-E1 cells [2]; mouse) | calcium deposition of SaOS-2 cells (SaOS-2 cells) | growth of MBMMφ cells (MTT, cytotoxicity) (MBMMφ cells [3]; not shown) | effect on differentiation of MC3T3-E1 cells (ALP activity) (MC3T3-E1 cells [4]; at 4 μM and 16 μM, FIG. 6) | effect on differentiation of MC3T3-E1 cells (ALP activity) (MC3T3-E1 cells [4]; at 10 μM and 50 μM, FIG. 7) | calcium deposition of hMSCs [5] | effect on differentiation of MBMMφ cells (s-TRAP activity) (MBMMφ cells [1]; [11]) | effect on differentiation of MC3T3-E1 cells (ALP activity) (MC3T3-E1 cells [4]; at 5 μM and 10 μM, FIG. 5) | growth of MC3T3-E1 cells (MTT, cytotoxicity) (MC3T3-E1 cells [2]; different concentrations, FIG. 8) | effect on differentiation of MC3T3-E1 cells (ALP activity) (MC3T3-E1 cells [4]; at 16 μM, FIG. 6) | calcium deposition of MC3T3-E1 cells (Alizarin Red S, OD 562 nm) (MC3T3-E1 cells [6]) | growth of MBMMφ cells (MTT, cytotoxicity) (MBMMφ cells [3]; 0-25 μM, 1 day incubation, medium containing M-CSF) | effect on differentiation of RAW 264.7 cells (TRAP activity) (RAW 264.7 cells [7]) | toxicity to RAW 264.7 cells (RAW 264.7 cells [8]) | effect on differentiation of MBMMφ cells (s-TRAP activity) (MBMMφ cells [1]; 1 μM, 5 μM, 10 μM, 20 μM, in comparison with control) | growth of MBMMφ cells (MTT, cytotoxicity) (MBMMφ cells [9]) | effect on differentiation of MC3T3-E1 cells (ALP activity) (MC3T3-E1 cells [4]; 0.25 μM, 1 μM, 4 μM, 16 μM, FIG. 6) | effect on differentiation of MC3T3-E1 cells (ALP activity) (MC3T3-E1 cells [4]; 0.4 μM, 2 μM, 10 μM, 50 μM, FIG. 7)
1 | O=c1cc(-c2ccccc2)oc2ccc(O)cc12 [6-hydroxy flavone] | 7.3 ± 0.2 µM | significantly inhibit the differentiation of MBMMφ cells | do not affect the growth of MC3T3-E1 cells | significantly enhance calcium deposition of SaOS-2 cells | do not influence the growth of MBMMφ cells | significantly stimulate the differentiation of MC3T3-E1 cells | obviously stimulate the differentiation of MC3T3-E1 cells | does not inhibit calcium deposition even at high concentration |  |  |  |  |  |  |  |  |  |  |  | 
2 | COc1ccc2oc(-c3ccccc3)cc(=O)c2c1 [6-methoxy flavone] | 5.4 ± 0.2 µM |  | do not affect the growth of MC3T3-E1 cells |  | do not influence the growth of MBMMφ cells |  |  | greatly inhibits calcium deposition of hMSCs | manifestly inhibit the differentiation of MBMMφ cells | efficiently enhance the differentiation of MC3T3-E1 cells |  |  |  |  |  |  |  |  |  | 
3 | O=c1cc(-c2ccccc2)oc2cc(O)ccc12 [7-hydroxy flavone] | 10.9 ± 1.3 µM | significantly inhibit the differentiation of MBMMφ cells |  | significantly enhance calcium deposition of SaOS-2 cells | do not influence the growth of MBMMφ cells |  |  | inhibit calcium deposition on hMSCs only at high concentration |  |  | do not affect the growth of MC3T3-E1 cells | enhance effectively the cell differentiation |  |  |  |  |  |  |  | 

Continued, in another order:

Row | IC50 (MBMMφ cells [1]) | Compound | effect on differentiation of MBMMφ cells (s-TRAP activity) (MBMMφ cells [1]; [10]) | growth of MC3T3-E1 cells (MTT, cytotoxicity) (MC3T3-E1 cells [2]; mouse) | calcium deposition of SaOS-2 cells (SaOS-2 cells) | growth of MBMMφ cells (MTT, cytotoxicity) (MBMMφ cells [3]; not shown) | effect on differentiation of MC3T3-E1 cells (ALP activity) (MC3T3-E1 cells [4]; at 4 μM and 16 μM, FIG. 6) | effect on differentiation of MC3T3-E1 cells (ALP activity) (MC3T3-E1 cells [4]; at 10 μM and 50 μM, FIG. 7) | calcium deposition of hMSCs [5] | effect on differentiation of MBMMφ cells (s-TRAP activity) (MBMMφ cells [1]; [11]) | effect on differentiation of MC3T3-E1 cells (ALP activity) (MC3T3-E1 cells [4]; at 5 μM and 10 μM, FIG. 5) | growth of MC3T3-E1 cells (MTT, cytotoxicity) (MC3T3-E1 cells [2]; different concentrations, FIG. 8) | effect on differentiation of MC3T3-E1 cells (ALP activity) (MC3T3-E1 cells [4]; at 16 μM, FIG. 6) | calcium deposition of MC3T3-E1 cells (Alizarin Red S, OD 562 nm) (MC3T3-E1 cells [6]) | growth of MBMMφ cells (MTT, cytotoxicity) (MBMMφ cells [3]; 0-25 μM, 1 day incubation, medium containing M-CSF) | effect on differentiation of RAW 264.7 cells (TRAP activity) (RAW 264.7 cells [7]) | toxicity to RAW 264.7 cells (RAW 264.7 cells [8]) | effect on differentiation of MBMMφ cells (s-TRAP activity) (MBMMφ cells [1]; 1 μM, 5 μM, 10 μM, 20 μM, in comparison with control) | growth of MBMMφ cells (MTT, cytotoxicity) (MBMMφ cells [9]) | effect on differentiation of MC3T3-E1 cells (ALP activity) (MC3T3-E1 cells [4]; 0.25 μM, 1 μM, 4 μM, 16 μM, FIG. 6) | effect on differentiation of MC3T3-E1 cells (ALP activity) (MC3T3-E1 cells [4]; 0.4 μM, 2 μM, 10 μM, 50 μM, FIG. 7)
4 | 7.1 ± 0.6 µM | COc1ccc2c(=O)cc(-c3ccccc3)oc2c1 [7-methoxy flavone] |  | do not affect the growth of MC3T3-E1 cells | significantly enhance calcium deposition of SaOS-2 cells |  | significantly stimulate the differentiation of MC3T3-E1 cells | obviously stimulate the differentiation of MC3T3-E1 cells | inhibit calcium deposition on hMSCs only at high concentration | manifestly inhibit the differentiation of MBMMφ cells | efficiently enhance the differentiation of MC3T3-E1 cells |  |  | effectively enhance calcium deposition of MC3T3-E1 cells | does not affect the growth of MBMMφ cells | significantly inhibit the differentiation of RAW 264.7 cells | no toxicity to RAW 264.7 cells |  |  |  | 
5 | > 20 µM | O=c1cc(-c2ccccc2)oc2ccccc12 [flavone, reference compound] |  | do not affect the growth of MC3T3-E1 cells |  |  |  |  |  |  |  |  |  |  |  |  |  | does not have obvious effect | do not influence the growth of MBMMφ cells | does not stimulate the differentiation of MC3T3-E1 cells | does not significantly stimulate the differentiation of MC3T3-E1 cells
